Patent publication US10550105B2 (Ribon Therapeutics Inc., priority 2018, dated 2020)

Target: PARP7 (Homo sapiens (Human), UniProt Q7Z3E1)
Test: Enzymatic assay for inhibition of PARP7: TR-FRET displacement of biotinylated Probe A from the TIPARP active site
Type: binding
Details: Table A-1
Procedure, shortened: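 Displacement of biotinylated Probe A from TIPARP was measured as the 665/615 nm time-resolved FRET ratio (excitation 320 nm, 90 μs delay) after a further 30 min at 25 °C. Inhibition across compound concentrations was fitted by dose-response regression, with the Hill slope free or fixed at 1 (3-parameter fit).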

Chain of PARP7 (Q7Z3E1 whole entry): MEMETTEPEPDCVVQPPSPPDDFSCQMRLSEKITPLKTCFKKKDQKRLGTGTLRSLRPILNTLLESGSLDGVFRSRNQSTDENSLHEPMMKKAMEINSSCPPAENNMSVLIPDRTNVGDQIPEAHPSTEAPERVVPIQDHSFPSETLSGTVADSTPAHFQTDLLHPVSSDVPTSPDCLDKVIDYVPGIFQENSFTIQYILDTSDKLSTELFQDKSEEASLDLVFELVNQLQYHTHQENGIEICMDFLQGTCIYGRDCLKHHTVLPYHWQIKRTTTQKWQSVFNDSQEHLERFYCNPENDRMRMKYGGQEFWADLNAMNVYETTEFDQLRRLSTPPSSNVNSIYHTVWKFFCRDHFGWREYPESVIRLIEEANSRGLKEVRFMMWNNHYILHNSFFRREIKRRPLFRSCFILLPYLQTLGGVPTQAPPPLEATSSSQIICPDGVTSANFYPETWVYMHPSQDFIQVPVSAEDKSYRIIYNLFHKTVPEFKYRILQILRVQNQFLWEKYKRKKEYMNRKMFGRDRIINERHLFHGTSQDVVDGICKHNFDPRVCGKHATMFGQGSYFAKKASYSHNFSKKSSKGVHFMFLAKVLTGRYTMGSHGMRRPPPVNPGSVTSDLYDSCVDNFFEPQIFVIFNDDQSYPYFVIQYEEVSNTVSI

Row | Compound | IC50
1 | C[C@@H](CSCCC(=O)N1CCN(c2ncc(C(F)(F)F)cn2)CC1)Nc1cn[nH]c(=O)c1C(F)(F)F [Example 702, (S)-5-((1-((3-Oxo-3-(4-(5-(trifluoromethyl)pyrimidin-2-yl)piperazin-1-yl)propyl)thio)propan-2-yl)amino)-4-(trifluoromethyl)pyridazin-3(2H)-one] | < 0.1 µM
2 | C[C@H](CSCCC(=O)N1CCN(c2ncc(C(F)(F)F)cn2)CC1)Nc1cn[nH]c(=O)c1C(F)(F)F [Example 703, (R)-5-((1-((3-Oxo-3-(4-(5-(trifluoromethyl)pyrimidin-2-yl)piperazin-1-yl)propyl)thio)propan-2-yl)amino)-4-(trifluoromethyl)pyridazin-3(2H)-one] | 0.1 to 1 µM
3 | O=C(CCOC[C@@H](CCO)Oc1cn[nH]c(=O)c1C(F)(F)F)N1CCN(c2ncc(Cl)cn2)CC1 [Example 704, (R)-5-((1-(3-(4-(5-Chloropyrimidin-2-yl)piperazin-1-yl)-3-oxopropoxy)-4-hydroxybutan-2-yl)oxy)-4-(trifluoromethyl)pyridazin-3(2H)-one] | < 0.1 µM
4 | C[C@@H](COCCC(=O)N1CCN(c2ncc(C(F)(F)F)s2)CC1)Oc1cn[nH]c(=O)c1C(F)(F)F [Example 708, (S)-5-((1-(3-Oxo-3-(4-(5-(trifluoromethyl)thiazol-2-yl)piperazin-1-yl)propoxy)propan-2-yl)oxy)-4-(trifluoromethyl)pyridazin-3(2H)-one] | < 0.1 µM
5 | C[C@@H](COCCC(=O)N1CCN(c2cnc(C(F)(F)F)s2)CC1)Nc1cn[nH]c(=O)c1C(F)(F)F [Example 709, (S)-5-((1-(3-Oxo-3-(4-(2-(trifluoromethyl)thiazol-5-yl)piperazin-1-yl)propoxy)propan-2-yl)amino)-4-(trifluoromethyl)pyridazin-3(2H)-one] | < 0.1 µM
6 | COC[C@@H](COCCC(=O)N1CCN(c2ncc(C#N)s2)CC1)Nc1cn[nH]c(=O)c1C(F)(F)F [Example 713, (S)-2-(4-(3-(3-Methoxy-2-((6-oxo-5-(trifluoromethyl)-1,6-dihydropyridazin-4-yl)amino)propoxy)propanoyl)piperazin-1-yl)thiazole-5-carbonitrile] | < 0.1 µM
7 | [2H]C1([2H])N(C(=O)CCOC[C@H](C)Oc2cn[nH]c(=O)c2C(F)(F)F)C([2H])([2H])C([2H])([2H])N(c2ccc(C#N)cn2)C1([2H])[2H] [Example 714, (S)-6-(4-(3-(2-((6-Oxo-5-(trifluoromethyl)-1,6-dihydropyridazin-4-yl)oxy)propoxy)propanoyl)piperazin-1-yl-2,2,3,3,5,5,6,6-d8)nicotinonitrile] | < 0.1 µM
8 | C[C@@H](COCCC(=O)N1CCN(c2ncc(Cl)s2)CC1)Oc1cn[nH]c(=O)c1C(F)(F)F [Example 723, (S)-5-((1-(3-(4-(5-Chlorothiazol-2-yl)piperazin-1-yl)-3-oxopropoxy)propan-2-yl)oxy)-4-(trifluoromethyl)pyridazin-3(2H)-one] | < 0.1 µM
9 | O=c1[nH]ncc(OCCOCCS(=O)(=O)N2CCN(c3ncc(C(F)(F)F)cn3)CC2)c1C(F)(F)F [Example 724, 4-(Trifluoromethyl)-5-(2-(2-((4-(5-(trifluoromethyl)pyrimidin-2-yl)piperazin-1-yl)sulfonyl)ethoxy)ethoxy)pyridazin-3(2H)-one] | < 0.1 µM
10 | C[C@@H](COCCS(=O)(=O)N1CCN(c2ncc(C(C)(C)C)cn2)CC1)Nc1cn[nH]c(=O)c1C(F)(F)F [Example 725, (S)-5-((1-(2-((4-(5-(Tert-butyl)pyrimidin-2-yl)piperazin-1-yl)sulfonyl)ethoxy)propan-2-yl)amino)-4-(trifluoromethyl)pyridazin-3(2H)-one] | < 0.1 µM
11 | C[C@@H](COCCS(=O)(=O)N1CCN(c2ncc(C(F)(F)F)s2)CC1)Nc1cn[nH]c(=O)c1C(F)(F)F [Example 726, (S)-4-(Trifluoromethyl)-5-((1-(2-((4-(5-(trifluoromethyl)thiazol-2-yl)piperazin-1-yl)sulfonyl)ethoxy)propan-2-yl)amino)pyridazin-3(2H)-one] | < 0.1 µM
12 | C[C@@H](COCCS(=O)(=O)N1CCN(c2ncc(C(F)(F)F)cn2)CC1)Oc1cn[nH]c(=O)c1C(F)(F)F [Example 728, (S)-4-(Trifluoromethyl)-5-((1-(2-((4-(5-(trifluoromethyl)pyrimidin-2-yl)piperazin-1-yl)sulfonyl)ethoxy)propan-2-yl)oxy)pyridazin-3(2H)-one] | < 0.1 µM
13 | C[C@@H](COCCC(=O)N1CCN(c2ncc(C(F)(F)F)s2)CC1)Oc1cn[nH]c(=O)c1Cl [Example 729, (S)-4-Chloro-5-((1-(3-oxo-3-(4-(5-(trifluoromethyl)thiazol-2-yl)piperazin-1-yl)propoxy)propan-2-yl)oxy)pyridazin-3(2H)-one] | 0.1 to 1 µM
14 | C[C@@H](COCCC(=O)N1CCN(c2ncc(C(F)(F)F)s2)CC1)Oc1cn[nH]c(=O)c1Br [Example 730, (S)-4-Bromo-5-((1-(3-oxo-3-(4-(5-(trifluoromethyl)thiazol-2-yl)piperazin-1-yl)propoxy)propan-2-yl)oxy)pyridazin-3(2H)-one] | 0.1 to 1 µM

More lines, now with the values ahead:

Row | IC50 | Compound
15 | 0.1 to 1 µM | O=C(CCOC[C@H](CCO)Oc1cn[nH]c(=O)c1C(F)(F)F)N1CCN(c2ncc(Cl)cn2)CC1 [Example 705, (S)-5-((1-(3-(4-(5-Chloropyrimidin-2-yl)piperazin-1-yl)-3-oxopropoxy)-4-hydroxybutan-2-yl)oxy)-4-(trifluoromethyl)pyridazin-3(2H)-one]
16 | < 0.1 µM | C[C@@H](COCCC(=O)N1CCN(c2ncc(C(F)F)cn2)CC1)Nc1cn[nH]c(=O)c1C(F)(F)F [Example 706, (S)-5-((1-(3-(4-(5-(Difluoromethyl)pyrimidin-2-yl)piperazin-1-yl)-3-oxopropoxy)propan-2-yl)amino)-4-(trifluoromethyl)pyridazin-3(2H)-one]
17 | < 0.1 µM | C[C@@H](COCCC(=O)N1CCN(c2ncc(C(C)(F)F)cn2)CC1)Nc1cn[nH]c(=O)c1C(F)(F)F [Example 707, (S)-5-((1-(3-(4-(5-(1,1-Difluoroethyl)pyrimidin-2-yl)piperazin-1-yl)-3-oxopropoxy)propan-2-yl)amino)-4-(trifluoromethyl)pyridazin-3(2H)-one]
18 | 0.1 to 1 µM | C[C@@H](COCCC(=O)N1CCC(Nc2ncc(C(F)(F)F)cn2)C1)Nc1cn[nH]c(=O)c1C(F)(F)F (stereo partly drawn) [Example 710, 5-(((2S)-1-(3-Oxo-3-(3-((5-(trifluoromethyl)pyrimidin-2-yl)amino)pyrrolidin-1-yl)propoxy)propan-2-yl)amino)-4-(trifluoromethyl)pyridazin-3(2H)-one]
19 | < 0.1 µM | C[C@@H](COCCC(=O)N1CCN(c2ncc(C#N)s2)CC1)Oc1cn[nH]c(=O)c1C(F)(F)F [Example 711, (S)-2-(4-(3-(2-((6-Oxo-5-(trifluoromethyl)-1,6-dihydropyridazin-4-yl)oxy)propoxy)propanoyl)piperazin-1-yl)thiazole-5-carbonitrile]
20 | < 0.1 µM | COC[C@@H](COCCC(=O)N1CCN(c2ncc(C(F)(F)F)s2)CC1)Nc1cn[nH]c(=O)c1C(F)(F)F [Example 712, (S)-5-((1-Methoxy-3-(3-oxo-3-(4-(5-(trifluoromethyl)thiazol-2-yl)piperazin-1-yl)propoxy)propan-2-yl)amino)-4-(trifluoromethyl)pyridazin-3(2H)-one]
21 | < 0.1 µM | [2H]C1([2H])N(C(=O)CCOC[C@H](C)Oc2cn[nH]c(=O)c2C(F)(F)F)C([2H])([2H])C([2H])([2H])N(c2ncc(Cl)cn2)C1([2H])[2H] [Example 715, (S)-5-((1-(3-(4-(5-Chloropyrimidin-2-yl)piperazin-1-yl-2,2,3,3,5,5,6,6-d8)-3-oxopropoxy)propan-2-yl)oxy)-4-(trifluoromethyl)pyridazin-3(2H)-one]
22 | < 0.1 µM | C[C@@H](COCCC(=O)N1CCC(Oc2ncc(C(F)(F)F)cn2)C1)Nc1cn[nH]c(=O)c1C(F)(F)F (stereo partly drawn) [Example 716, 5-(((2S)-1-(3-Oxo-3-(3-((5-(trifluoromethyl)pyrimidin-2-yl)oxy)pyrrolidin-1-yl)propoxy)propan-2-yl)amino)-4-(trifluoromethyl)pyridazin-3(2H)-one]
23 | < 0.1 µM | C[C@@H](COCCC(=O)N1CCC(Nc2ncc(C#N)s2)C1)Nc1cn[nH]c(=O)c1C(F)(F)F (stereo partly drawn) [Example 717, 2-((1-(3-((S)-2-((6-Oxo-5-(trifluoromethyl)-1,6-dihydropyridazin-4-yl)amino)propoxy)propanoyl)pyrrolidin-3-yl)amino)thiazole-5-carbonitrile]
24 | < 0.1 µM | C[C@@H](COCCC(=O)N1CCC(Oc2ncc(C#N)s2)C1)Nc1cn[nH]c(=O)c1C(F)(F)F (stereo partly drawn) [Example 718, 2-((1-(3-((S)-2-((6-Oxo-5-(trifluoromethyl)-1,6-dihydropyridazin-4-yl)amino)propoxy)propanoyl)pyrrolidin-3-yl)oxy)thiazole-5-carbonitrile]
25 | < 0.1 µM | C[C@@H](COCCC(=O)N1CCC(Oc2ncc(C(F)(F)F)s2)C1)Nc1cn[nH]c(=O)c1C(F)(F)F (stereo partly drawn) [Example 720, 5-(((2S)-1-(3-Oxo-3-(3-((5-(trifluoromethyl)thiazol-2-yl)oxy)pyrrolidin-1-yl)propoxy)propan-2-yl)amino)-4-(trifluoromethyl)pyridazin-3(2H)-one]
26 | < 0.1 µM | C[C@@H](COCCC(=O)N1CCN(c2ncc(Cl)s2)CC1)Nc1cn[nH]c(=O)c1C(F)(F)F [Example 721, (S)-5-((1-(3-(4-(5-Chlorothiazol-2-yl)piperazin-1-yl)-3-oxopropoxy)propan-2-yl)amino)-4-(trifluoromethyl)pyridazin-3(2H)-one]
27 | < 0.1 µM | C[C@@H](COCCC(=O)N1CCN(c2nnc(C(F)(F)F)s2)CC1)Nc1cn[nH]c(=O)c1C(F)(F)F [Example 722, (S)-5-((1-(3-Oxo-3-(4-(5-(trifluoromethyl)-1,3,4-thiadiazol-2-yl)piperazin-1-yl)propoxy)propan-2-yl)amino)-4-(trifluoromethyl)pyridazin-3(2H)-one]
28 | < 0.1 µM | CC[C@@H](COCCC(=O)N1CCN(c2ncc(Cl)cn2)CC1)Oc1cn[nH]c(=O)c1Br [Example 727, (S)-4-Bromo-5-((1-(3-(4-(5-chloropyrimidin-2-yl)piperazin-1-yl)-3-oxopropoxy)butan-2-yl)oxy)pyridazin-3(2H)-one]
